# Literature values in patent US20130281390A1, “METHOD FOR TREATING DRY EYE” (priority 2010, published 2013).
# Test system: subjects with meibomian gland dysfunction
# Conditions: daily topical administration to the ocular surface
smiles,measurement,value
CC[C@H]1OC(=O)[C@H](C)[C@@H](O[C@H]2C[C@@](C)(OC)[C@@H](O)[C@H](C)O2)[C@H](C)[C@@H](O[C@@H]2O[C@H](C)C[C@H](N(C)C)[C@H]2O)[C@](C)(O)C[C@@H](C)CN(C)[C@H](C)[C@@H](O)[C@]1(C)O [azithromycin],physicochemical properties of the meibum,improved the physicochemical properties of the meibum towards that of normal subjects
